In patent US5589486A, “N-hydroxyalkyl-substituted 1,2,3,6-tetrahydro-pyridine and piperidine derivatives” (Richter Gedeon Vegyeszeti Gyar Rt., priority 1991, dated 1996):
Where two headings read alike, the source gives them in different places.

Legend:
[1] = Acute toxicity study in mice; parameters: species or system mice (OF-1, either sex); settings: mouse, in vivo, po, maximal dose 1000 mg/kg
Procedure: OF-1 mice of either sex weighing 19-21 g were used. The test compound was administered through a catheter inserted into the stomach. A series of solutions was prepared, the concentrations were chosen to give a constant dosage volume of 0.1 ml/10 g. The observation time after the treatment was 72 hours. The LD50 value was calculated according to Litchfield and Wilcoxon from six dose responses (maximal dose 1000 mg/kg p.o., n=10).

hypoxia = test: Antihypoxic effect, cytotoxic and hypobaric hypoxia tests taken together; assay type: in vivo, mice; spontaneously hypertensive (SH) rats; settings: comparison of effects between tests, in words
Procedure: (§1) Male CFLP mice (from the Hungarian stock LATI) weighing 24-26 g each and spontaneously hypertensive (SH) male rats weighing 160-180 g each, respectively were used in these investigations. The compounds to be tested were orally administered in a volume of 10 ml/kg one hour prior to starting the experiment.
After a 1-hour pretreatment, the animals were intravenously injected with 5 mg/kg of potassium cyanide. Survival time was measured as an interval lasting from the administration of potassium cyanide to the last respiratory movement. In the groups consisting of 10 animals each treated with the compounds, the animals having a survival time longer by 30% than the average survival time of the placebo-treated group were considered to be protected. The ED50 values (i.e. the doses being effective in 50% of the animals) were calculated from the percentage of the surviving animals by using probit analysis.
After a 16-hour starving and 1-hour pretreatment period, the animals were placed in a desiccator of 6 liters volume, where the pressure was decreased to 170 mmHg within 20 seconds. The survival time was registered from this time point up to the last respiratory movement of the animals. […] The ED50 values were calculated from the percentage of the animals protected by using probit analysis. […]

[2] = test system: cytotoxic hypoxia in mice; test: Cytotoxic hypoxia test (potassium cyanide i.v., survival time); assay type: in vivo, mice (male CFLP); settings: in words
[3] = test system: hypobaric hypoxia in SH rats; test: Hypobaric hypoxia test (170 mmHg, survival time); assay type: in vivo, spontaneously hypertensive (SH) male rats; settings: in words
Procedure: as §1
After a 16-hour starving and 1-hour pretreatment period, the animals were placed in a desiccator of 6 liters volume, where the pressure was decreased to 170 mmHg within 20 seconds. The survival time was registered from this time point up to the last respiratory movement of the animals. Animals having a survival time longer by 30% than the average survival time of the control group were considered to be protected. The ED50 values were calculated from the percentage of the animals protected by using probit analysis.
Various forms of hypoxia were used for investigating the compounds. The functional disorganization and destruction of cells and death, respectively in otherwise healthy mice are caused by a decrease in the oxygen-saturation of haemoglobin in the hypobaric hypoxia and the inhibition of the mitochondrial respiratory enzyme in the cytotoxic hypoxia. Spontaneously hypertensive (SH) rats are more sensitive against hypoxic conditions than normotensive animals; similarly, patients suffering from hypertension have a less chance of survival after hypoxic injuries.

[4] = 72 h observation, Litchfield and Wilcoxon, read-out: LD50

| Structure (SMILES) | LD50 at 72 h [1, 4] [mg/kg] | antihypoxic effect in the various tests of hypoxia (hypoxia) | further results |
| --- | --- | --- | --- |
| OC(CN1CC=C(c2ccccc2)CC1)c1ccc(Cc2ccc(Cl)cc2)cc1 (stereo not shown) [A, 1-[4-(4-Chlorobenzyl)phenyl]-2-(4-phenyl-1,2,3,6-tetrahydro-1-pyridyl)ethanol] | > 1000 | its effects are the same in the various tests of hypoxia |  |
| OC(CCN1CCC(c2ccccc2)CC1)c1ccc(Cc2ccc(Cl)cc2)cc1 (stereo not shown) [B, 1-[4-(4-chlorobenzyl)phenyl]-3-(4-phenyl-1-piperidyl)propanol] |  |  | LD50 at 72 h [1]: 697 mg/kg |
| OC(CCN1CC=C(c2ccc(Cl)cc2)CC1)c1ccc(Cl)cc1Cl (stereo not shown) [E, 3-[4-(4-Chlorophenyl)-1,2,3,6-tetrahydro-1-pyridyl]-1-(2,4-dichlorophenyl)propanol] | > 1000 |  |  |
| NC(=O)CN1CCCC1=O [Piracetam, 2-oxo-1-pyrrolidinylacetic acid amide, reference compound] |  | exerts its effect in the same two tests |  |
| CC[C@]12CCCN3CCc4c(n(c5ccccc45)[C@@](O)(C(=O)OC)C1)[C@@H]32 [Vincamine, (+)-14β-hydroxy-14α-methoxycarbonyl-14,15-dihydroeburnamenine] |  |  | antihypoxic effect in cytotoxic hypoxia [2]: most pronounced in cytotoxic hypoxia; action in hypobaric hypoxia [3]: prominent tolerance-enhancing action in hypobaric hypoxia |
